Values of other authors, collected in patent publication US20140309164A1, “DEUTERATED NUCLEOSIDE PRODRUGS USEFUL FOR TREATING HCV” (priority 2013, published 2014).

How the values were obtained:
HCV = conditions: percent of the trial participants; several large clinical trials
[1] = pulled from clinical trials

CC(C)OC(=O)[C@H](C)NP(=S)(OC[C@H]1O[C@@H](n2ccc(=O)[nH]c2=O)[C@](C)(O)[C@@H]1O)Oc1ccccc1 (some centres unmarked) [VX-135]
sustained viral response rate four weeks after the completion of treatment (SVR4), intent-to-treat analysis (HCV genotype 1; 200 mg VX-135 in combination with daclatasvir, treatment-naive genotype 1, 10 of 12): 83% | completion of treatment rate (SVR4) (HCV genotype 1; eleven patients who completed 12 weeks of treatment, VX-135 in combination with daclatasvir): 91% | serious adverse event (HCV genotype 1; one patient, VX-135 in combination with daclatasvir): serious adverse event of vomiting/nausea

CC(C)OC(=O)[C@H](C)NP(=O)(OC[C@H]1O[C@@H](n2ccc(=O)[nH]c2=O)C(C)(F)C1O)Oc1ccccc1 (some centres unmarked) [Sovaldi, Sofosbuvir]
sustained viral response (SVR) of twelve weeks (HCV): 50-90%

COc1nc(N)nc2c1ncn2[C@@H]1O[C@H](COP(=O)(N[C@@H](C)C(=O)OCC(C)(C)C)Oc2cccc3ccccc23)[C@@H](O)[C@@]1(C)O (some centres unmarked) [BMS-986094]
fatal adverse event in clinical trials [1]: death of a patient due to heart failure
